The source of these data is ChEMBL document CHEMBL3779856, “Synthesis and antiproliferative activity of 6,7-disubstituted-4-phenoxyquinoline derivatives bearing the 2-oxo-4-chloro-1,2-dihydroquinoline-3-carboxamide moiety” (Bioorg Med Chem Lett, 2016).

The nature of assay [1]: Cytotoxicity against human U87MG cells assessed as cell growth inhibition after 72 hrs by MTT assay. It counts as functional, cell-based, U-87MG ATCC. To be noted: U-87 MG. For orientation: Tetrazolium assays rely on reduction of a dye to a coloured formazan, in cell work by metabolically active cells.
The next assay relates to A549. The experiment in a line: Cytotoxicity against human A549 cells assessed as cell growth inhibition after 72 hrs by MTT assay. Conditions: A549, 72 h. In kind it is functional, cell-based.
The target in assay [2] is Hepatocyte growth factor receptor (Homo sapiens, UniProt P08581). The experiment in a line: Inhibition of cMet (unknown origin) using poly (Glu, Tyr) 4:1 as substrate after 30 mins by HTRF assay.
Sequence of Hepatocyte growth factor receptor (P08581 whole entry): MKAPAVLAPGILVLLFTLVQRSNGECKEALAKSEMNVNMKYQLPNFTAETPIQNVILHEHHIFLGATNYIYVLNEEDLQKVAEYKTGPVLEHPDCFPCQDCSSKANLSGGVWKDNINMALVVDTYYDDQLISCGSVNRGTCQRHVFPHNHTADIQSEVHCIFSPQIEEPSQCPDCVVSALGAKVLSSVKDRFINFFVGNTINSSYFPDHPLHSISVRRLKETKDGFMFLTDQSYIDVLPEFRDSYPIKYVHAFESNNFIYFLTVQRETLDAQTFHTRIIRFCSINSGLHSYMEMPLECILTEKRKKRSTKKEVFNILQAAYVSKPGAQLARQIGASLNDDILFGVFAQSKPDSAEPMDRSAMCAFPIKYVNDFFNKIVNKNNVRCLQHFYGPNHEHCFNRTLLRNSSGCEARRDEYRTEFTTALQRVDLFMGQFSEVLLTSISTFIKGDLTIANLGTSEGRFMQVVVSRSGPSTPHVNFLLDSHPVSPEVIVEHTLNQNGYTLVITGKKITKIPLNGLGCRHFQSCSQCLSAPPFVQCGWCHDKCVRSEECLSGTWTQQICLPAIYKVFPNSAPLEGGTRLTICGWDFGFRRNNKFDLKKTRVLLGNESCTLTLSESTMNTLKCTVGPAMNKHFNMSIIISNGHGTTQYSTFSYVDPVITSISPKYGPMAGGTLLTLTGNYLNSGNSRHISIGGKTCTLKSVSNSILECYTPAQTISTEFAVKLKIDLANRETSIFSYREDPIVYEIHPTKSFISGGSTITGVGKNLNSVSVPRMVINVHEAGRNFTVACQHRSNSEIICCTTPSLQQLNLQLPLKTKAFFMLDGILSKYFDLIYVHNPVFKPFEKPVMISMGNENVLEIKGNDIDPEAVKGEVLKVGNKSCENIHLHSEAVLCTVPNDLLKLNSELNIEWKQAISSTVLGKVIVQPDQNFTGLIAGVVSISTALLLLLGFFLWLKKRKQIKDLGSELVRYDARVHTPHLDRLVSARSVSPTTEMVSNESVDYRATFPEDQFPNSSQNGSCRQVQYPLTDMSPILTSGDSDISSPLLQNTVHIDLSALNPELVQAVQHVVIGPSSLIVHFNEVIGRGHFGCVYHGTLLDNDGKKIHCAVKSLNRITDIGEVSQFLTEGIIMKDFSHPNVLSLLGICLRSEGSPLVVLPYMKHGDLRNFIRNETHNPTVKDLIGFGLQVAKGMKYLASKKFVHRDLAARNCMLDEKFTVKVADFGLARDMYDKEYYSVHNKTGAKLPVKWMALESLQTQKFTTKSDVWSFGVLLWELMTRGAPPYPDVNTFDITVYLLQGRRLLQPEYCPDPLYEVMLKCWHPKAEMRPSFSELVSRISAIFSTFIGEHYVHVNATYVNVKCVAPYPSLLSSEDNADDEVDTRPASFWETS
The test system of assay [3] is HT-29. Briefly: cells. Conditions: Homo sapiens, HT-29, 72 h.
Description: Cytotoxicity against human HT-29 cells assessed as cell growth inhibition after 72 hrs by MTT assay
Assay [4] can be described thus: cells. Conditions: Homo sapiens, NCI-H460, 72 h.
Description: Cytotoxicity against human H460 cells assessed as cell growth inhibition after 72 hrs by MTT assay
Assay [5] in a line: cells. Conditions: Homo sapiens, MKN-45, 72 h.
Description: Cytotoxicity against human MKN45 cells assessed as cell growth inhibition after 72 hrs by MTT assay
Assay [6] in a line: Potency index, ratio of foretinib IC50 to compound IC50 for human H460 cells. In kind it is functional.
The subject of assay [7] is HT-29. Briefly: Potency index, ratio of foretinib IC50 to compound IC50 for human HT-29 cells. It counts as functional.
The next assay concerns U-87 MG. The experiment in a line: Potency index, ratio of foretinib IC50 to compound IC50 for human U87MG cells. It counts as functional, U-87MG ATCC.
Assay [8] addresses T1, Receptor-type tyrosine-protein kinase FLT3 (Homo sapiens, UniProt P36888).
T1 sequence (P36888 whole entry): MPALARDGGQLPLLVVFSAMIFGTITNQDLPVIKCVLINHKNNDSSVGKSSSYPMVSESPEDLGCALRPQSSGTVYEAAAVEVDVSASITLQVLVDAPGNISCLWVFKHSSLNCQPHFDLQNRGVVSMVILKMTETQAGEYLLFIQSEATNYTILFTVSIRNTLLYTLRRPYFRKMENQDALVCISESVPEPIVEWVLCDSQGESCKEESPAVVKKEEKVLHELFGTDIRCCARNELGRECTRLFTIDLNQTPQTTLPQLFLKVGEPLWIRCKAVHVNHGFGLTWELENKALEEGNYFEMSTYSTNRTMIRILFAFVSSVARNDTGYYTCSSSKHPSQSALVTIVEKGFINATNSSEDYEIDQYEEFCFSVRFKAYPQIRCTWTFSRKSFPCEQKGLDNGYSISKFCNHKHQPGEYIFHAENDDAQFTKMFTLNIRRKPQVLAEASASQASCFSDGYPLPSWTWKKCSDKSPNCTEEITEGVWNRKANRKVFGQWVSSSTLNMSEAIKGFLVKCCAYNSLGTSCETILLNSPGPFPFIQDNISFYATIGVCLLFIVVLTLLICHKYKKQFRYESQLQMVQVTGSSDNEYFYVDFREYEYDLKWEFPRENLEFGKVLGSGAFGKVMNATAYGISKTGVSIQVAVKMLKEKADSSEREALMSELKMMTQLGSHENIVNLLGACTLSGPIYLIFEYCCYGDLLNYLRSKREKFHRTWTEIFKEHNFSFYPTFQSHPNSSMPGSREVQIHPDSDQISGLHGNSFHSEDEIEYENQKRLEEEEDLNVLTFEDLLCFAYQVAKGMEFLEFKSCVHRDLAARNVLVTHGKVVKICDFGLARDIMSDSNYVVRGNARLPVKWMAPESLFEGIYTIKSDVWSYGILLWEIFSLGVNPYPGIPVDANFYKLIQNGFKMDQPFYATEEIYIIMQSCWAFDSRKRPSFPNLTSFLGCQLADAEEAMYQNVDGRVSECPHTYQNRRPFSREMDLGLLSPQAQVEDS
The experiment in a line: Inhibition of FLT3 (unknown origin) using poly (Glu, Tyr) 4:1 as substrate after 30 mins by HTRF assay. For orientation: Time-resolved FRET reads energy transfer from a long-lived donor to a nearby acceptor.

Assay [9] concerns the target Mast/stem cell growth factor receptor Kit (Homo sapiens, UniProt P10721). Briefly: Inhibition of cKIT (unknown origin) using poly (Glu, Tyr) 4:1 as substrate after 30 mins by HTRF assay.
The target of assay [10] is Platelet-derived growth factor receptor beta (Homo sapiens, UniProt P09619). Briefly: Inhibition of PDGFRbeta (unknown origin) using poly (Glu, Tyr) 4:1 as substrate after 30 mins by HTRF assay.
Sequence of Platelet-derived growth factor receptor beta (P09619 whole entry): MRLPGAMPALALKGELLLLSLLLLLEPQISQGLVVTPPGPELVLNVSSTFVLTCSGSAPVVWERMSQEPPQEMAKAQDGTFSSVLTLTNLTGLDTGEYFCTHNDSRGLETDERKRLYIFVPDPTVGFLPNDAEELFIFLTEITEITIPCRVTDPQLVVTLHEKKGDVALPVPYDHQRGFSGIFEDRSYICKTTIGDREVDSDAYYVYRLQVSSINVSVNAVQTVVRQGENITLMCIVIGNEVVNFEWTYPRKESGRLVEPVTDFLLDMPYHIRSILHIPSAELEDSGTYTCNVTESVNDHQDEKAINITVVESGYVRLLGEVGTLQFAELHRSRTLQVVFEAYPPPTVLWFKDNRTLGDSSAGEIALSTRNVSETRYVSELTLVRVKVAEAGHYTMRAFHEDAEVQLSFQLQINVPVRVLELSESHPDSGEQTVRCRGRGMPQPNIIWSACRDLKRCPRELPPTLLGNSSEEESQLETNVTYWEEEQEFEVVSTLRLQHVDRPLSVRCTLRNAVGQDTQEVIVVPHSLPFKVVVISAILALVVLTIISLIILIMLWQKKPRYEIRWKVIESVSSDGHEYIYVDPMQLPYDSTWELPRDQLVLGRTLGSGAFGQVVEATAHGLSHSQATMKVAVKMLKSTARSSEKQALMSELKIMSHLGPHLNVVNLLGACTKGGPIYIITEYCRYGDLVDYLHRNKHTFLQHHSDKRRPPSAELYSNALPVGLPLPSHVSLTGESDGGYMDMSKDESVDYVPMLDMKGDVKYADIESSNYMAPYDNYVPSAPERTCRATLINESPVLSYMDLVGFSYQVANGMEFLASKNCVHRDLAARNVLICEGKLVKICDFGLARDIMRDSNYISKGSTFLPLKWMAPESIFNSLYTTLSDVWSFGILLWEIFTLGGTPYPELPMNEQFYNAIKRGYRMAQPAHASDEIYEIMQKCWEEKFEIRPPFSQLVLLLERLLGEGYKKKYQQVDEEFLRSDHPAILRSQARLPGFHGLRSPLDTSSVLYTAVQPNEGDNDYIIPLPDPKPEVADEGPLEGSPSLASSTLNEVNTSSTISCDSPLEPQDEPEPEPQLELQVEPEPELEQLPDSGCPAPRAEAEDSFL
For assay [11], the target named is Vascular endothelial growth factor receptor 2 (Homo sapiens, UniProt P35968). The experiment in a line: Inhibition of VEGFR-2 (unknown origin) using poly (Glu, Tyr) 4:1 as substrate after 30 mins by HTRF assay.
Sequence of Vascular endothelial growth factor receptor 2 (P35968 whole entry): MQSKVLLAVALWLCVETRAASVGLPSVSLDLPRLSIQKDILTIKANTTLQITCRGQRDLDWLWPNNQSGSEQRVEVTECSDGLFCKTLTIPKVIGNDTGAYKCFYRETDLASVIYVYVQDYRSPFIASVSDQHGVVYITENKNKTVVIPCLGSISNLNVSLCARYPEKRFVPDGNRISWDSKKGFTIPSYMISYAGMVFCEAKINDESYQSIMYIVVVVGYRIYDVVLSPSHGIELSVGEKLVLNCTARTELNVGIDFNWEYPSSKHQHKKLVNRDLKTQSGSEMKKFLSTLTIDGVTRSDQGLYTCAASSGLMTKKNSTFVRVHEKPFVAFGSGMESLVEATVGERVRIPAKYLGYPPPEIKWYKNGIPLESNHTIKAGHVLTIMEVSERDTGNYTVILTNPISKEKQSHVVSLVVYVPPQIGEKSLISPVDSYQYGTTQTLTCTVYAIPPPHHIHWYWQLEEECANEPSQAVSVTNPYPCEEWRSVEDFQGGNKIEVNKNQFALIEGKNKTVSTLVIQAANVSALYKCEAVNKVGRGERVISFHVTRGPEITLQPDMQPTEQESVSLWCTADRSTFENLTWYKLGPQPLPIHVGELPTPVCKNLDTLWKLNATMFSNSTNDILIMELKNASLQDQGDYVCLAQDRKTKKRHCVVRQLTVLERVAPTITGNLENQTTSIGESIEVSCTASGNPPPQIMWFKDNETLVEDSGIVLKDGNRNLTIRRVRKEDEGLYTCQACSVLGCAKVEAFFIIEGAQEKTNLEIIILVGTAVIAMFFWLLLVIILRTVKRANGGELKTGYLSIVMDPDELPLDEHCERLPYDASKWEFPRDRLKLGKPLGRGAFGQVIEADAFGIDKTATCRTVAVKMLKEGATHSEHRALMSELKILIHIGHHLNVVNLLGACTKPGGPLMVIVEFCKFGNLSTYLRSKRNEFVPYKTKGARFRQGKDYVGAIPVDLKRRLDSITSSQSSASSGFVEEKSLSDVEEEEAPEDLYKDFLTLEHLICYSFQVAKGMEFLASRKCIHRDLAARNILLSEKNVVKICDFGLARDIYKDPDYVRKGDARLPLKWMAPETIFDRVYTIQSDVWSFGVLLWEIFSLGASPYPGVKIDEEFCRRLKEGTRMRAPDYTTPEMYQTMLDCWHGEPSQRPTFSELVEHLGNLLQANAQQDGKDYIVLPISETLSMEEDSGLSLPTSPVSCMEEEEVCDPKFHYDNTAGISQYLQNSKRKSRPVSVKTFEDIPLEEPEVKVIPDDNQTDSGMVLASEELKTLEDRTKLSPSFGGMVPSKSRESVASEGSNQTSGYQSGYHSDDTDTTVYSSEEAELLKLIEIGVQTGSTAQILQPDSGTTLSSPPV
In assay [12] the target is Epidermal growth factor receptor (Homo sapiens, UniProt P00533). The experiment in a line: Inhibition of EGFR (unknown origin) using poly (Glu, Tyr) 4:1 as substrate after 30 mins by HTRF assay.
Sequence of Epidermal growth factor receptor (P00533 whole entry): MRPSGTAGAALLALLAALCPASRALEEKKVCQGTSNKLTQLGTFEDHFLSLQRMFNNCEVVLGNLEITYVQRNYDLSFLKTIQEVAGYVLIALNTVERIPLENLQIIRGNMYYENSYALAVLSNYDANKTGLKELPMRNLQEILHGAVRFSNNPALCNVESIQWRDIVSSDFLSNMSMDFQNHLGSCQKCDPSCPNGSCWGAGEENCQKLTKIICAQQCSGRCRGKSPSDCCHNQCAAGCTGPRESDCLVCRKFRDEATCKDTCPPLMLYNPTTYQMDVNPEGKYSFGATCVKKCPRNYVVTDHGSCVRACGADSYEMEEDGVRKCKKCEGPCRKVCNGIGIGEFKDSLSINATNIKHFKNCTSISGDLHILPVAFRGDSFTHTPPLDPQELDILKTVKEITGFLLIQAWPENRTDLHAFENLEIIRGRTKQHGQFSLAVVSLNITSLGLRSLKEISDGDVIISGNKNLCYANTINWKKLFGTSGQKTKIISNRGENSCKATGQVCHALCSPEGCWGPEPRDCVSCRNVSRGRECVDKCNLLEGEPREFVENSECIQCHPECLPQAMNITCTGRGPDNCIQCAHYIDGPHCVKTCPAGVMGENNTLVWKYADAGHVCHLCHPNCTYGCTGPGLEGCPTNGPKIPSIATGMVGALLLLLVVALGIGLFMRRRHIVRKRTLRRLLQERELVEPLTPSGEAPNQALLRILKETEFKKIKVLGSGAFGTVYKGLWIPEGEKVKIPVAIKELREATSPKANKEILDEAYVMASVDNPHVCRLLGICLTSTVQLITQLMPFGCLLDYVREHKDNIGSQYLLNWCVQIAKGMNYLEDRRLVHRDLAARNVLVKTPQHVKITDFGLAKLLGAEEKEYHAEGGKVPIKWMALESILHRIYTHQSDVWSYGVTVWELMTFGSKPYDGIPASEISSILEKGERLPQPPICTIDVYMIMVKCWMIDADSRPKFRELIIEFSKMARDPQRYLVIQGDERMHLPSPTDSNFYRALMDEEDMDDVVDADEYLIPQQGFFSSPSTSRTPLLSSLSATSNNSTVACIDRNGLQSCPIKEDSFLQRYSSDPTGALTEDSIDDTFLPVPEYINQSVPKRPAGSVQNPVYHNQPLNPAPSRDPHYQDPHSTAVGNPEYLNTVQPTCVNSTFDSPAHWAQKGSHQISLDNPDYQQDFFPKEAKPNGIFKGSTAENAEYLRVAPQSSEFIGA

Where only a bound is given, the exact number is not on record here.

The IC50 is the concentration that gives 50% inhibition. Turning to `COc1cc2c(Oc3ccc(NC(=O)c4c(Cl)c5ccccc5n(-c5ccccc5)c4=O)cc3F)ccnc2cc1OCCCN1CCCCC1`, the IC50 in assay [1] stood at 1300 nM; in the assay with A549, 510 nM; in assay [2], 18.4 nM; in the assay with HT-29 [3], 41600 nM; in “cells [4]” it was 140 nM; in the assay “cells [5]” it was 280 nM.
On to `COc1cc2c(Oc3ccc(NC(=O)c4c(Cl)c5ccccc5n(-c5ccccc5OC)c4=O)cc3F)ccnc2cc1OCCCN1CCOCC1`, for which the IC50 was 1400 nM in the assay on HT-29 [3], 1200 nM in “cells [4]” and 1260 nM in the assay “cells [5]”.
The like results for `COc1cc2c(Oc3ccc(NC(=O)c4c(Cl)c5ccccc5n(-c5ccc(C)cc5)c4=O)cc3F)ccnc2cc1OCCCN1CCCCC1` were, in that order, 520 nM, 170 nM and 480 nM.
In the case of `COc1cc2c(Oc3ccc(NC(=O)c4c(Cl)c5ccccc5n(-c5ccc(C)cc5)c4=O)cc3F)ccnc2cc1OCCCN1CCN(C)CC1`, the IC50 in assay [1] is 1060 nM; in the assay on A549, 310 nM; with HT-29 [3], 150 nM; in the assay “cells [4]”, 120 nM; in the assay “cells [5]” it was 120 nM.
For `COc1cc2c(Oc3ccc(NC(=O)c4c(Cl)c5ccccc5n(-c5ccc(C)cc5)c4=O)cc3F)ccnc2cc1OCCCN1CCOCC1`, the IC50 in assay [1] is 5160 nM; in the assay on A549, 830 nM; in the assay on HT-29 [3], 390 nM; in “cells [4]”, 850 nM; in the assay “cells [5]” it was 780 nM.
On to `COc1cc2c(Oc3ccc(NC(=O)c4c(Cl)c5ccccc5n(-c5ccc(F)cc5)c4=O)cc3F)ccnc2cc1OCCCN1CCCC1`, for which the IC50 is 640 nM in assay [1]; 720 nM in the assay with A549; 12.5 nM in assay [2]; 150 nM in the assay with HT-29 [3]; 120 nM in “cells [4]”; 570 nM in “cells [5]”.
Take `COc1cc2c(Oc3ccc(NC(=O)c4c(Cl)c5ccccc5n(-c5ccccc5OC)c4=O)cc3F)ccnc2cc1OCCCN1CCN(C)CC1`: the IC50 in the assay with HT-29 [3] is 530 nM; in the assay “cells [4]”, 150 nM; in the assay “cells [5]”, 120 nM.
The matching figures for `COc1cc2c(Oc3ccc(NC(=O)c4c(Cl)c5ccccc5n(-c5ccccc5OC(F)(F)F)c4=O)cc3F)ccnc2cc1OCCCN1CCCC1`: 1500 nM, 360 nM and 1400 nM.
As to `COc1cc2c(Oc3ccc(NC(=O)c4c(Cl)c5ccccc5n(-c5ccccc5)c4=O)cc3F)ccnc2cc1OCCCN1CCOCC1`, the IC50 in assay [1] is 4800 nM; with A549, 930 nM; in the assay on HT-29 [3] it was 460 nM; in the assay “cells [4]” it was 260 nM; in the assay “cells [5]”, 310 nM.
Take `COc1cc2c(Oc3ccc(NC(=O)c4c(Cl)c5ccccc5n(-c5ccc(C)cc5)c4=O)cc3F)ccnc2cc1OCCCN1CCC(C)CC1`: the IC50 in assay [1] stood at 3200 nM; in the assay on A549, 350 nM; in the assay with HT-29 [3], 190 nM; in “cells [4]” it was 180 nM; in “cells [5]” it was 120 nM.
As to `COc1cc2c(Oc3ccc(NC(=O)c4c(Cl)c5ccccc5n(-c5ccccc5)c4=O)cc3F)ccnc2cc1OCCCN1CCC(C)CC1`, the concentration for half-maximal inhibition (IC50) in [1] turned out to be 1420 nM; in the assay with A549, 390 nM; in [2] it was 6.84 nM; in the assay with HT-29 [3], 350 nM; in the assay “cells [4]” it was 150 nM; in the assay “cells [5]”, 460 nM.
As for `COc1cc2c(Oc3ccc(NC(=O)c4c(Cl)c5ccccc5n(-c5ccc(F)cc5)c4=O)cc3F)ccnc2cc1OCCCN1CCCCC1`, the 50% inhibitory concentration (IC50) in assay [1] worked out at 1600 nM; in the assay on A549 it was 160 nM; in assay [2] it was 12.2 nM; in the assay with HT-29 [3], 290 nM; in the assay “cells [4]”, 110 nM; in “cells [5]”, 310 nM.
Consider `COc1cc2c(Oc3ccc(NC(=O)c4c(Cl)c5ccccc5n(-c5ccccc5F)c4=O)cc3F)ccnc2cc1OCCCN1CCOCC1`, for which the values for the IC50 with HT-29 [3], in the assay “cells [4]” and in the assay “cells [5]” were 1210 nM, 580 nM and 740 nM, respectively.
For `COc1cc2c(Oc3ccc(NC(=O)c4c(Cl)c5ccccc5n(-c5ccccc5OC)c4=O)cc3F)ccnc2cc1OCCCN1CCCCC1`, the IC50 with HT-29 [3] was determined as 12600 nM; in “cells [4]”, 580 nM; in “cells [5]”, 420 nM.
The matching figures for `COc1cc2c(Oc3ccc(NC(=O)c4c(Cl)c5ccccc5n(-c5ccccc5OC(F)(F)F)c4=O)cc3F)ccnc2cc1OCCCN1CCC(C)CC1`: 570 nM, 380 nM and 310 nM.
`COc1cc2c(Oc3ccc(NC(=O)c4c(Cl)c5ccccc5n(-c5ccccc5)c4=O)cc3F)ccnc2cc1OCCCN1CCCC1`: the IC50 in [1] was found to be 1600 nM; in the assay on A549 it was 810 nM; in the assay on HT-29 [3], 390 nM; in the assay “cells [4]”, 210 nM; in “cells [5]” it was 210 nM.
Turning to `COc1cc2c(Oc3ccc(NC(=O)c4c(Cl)c5ccccc5n(-c5cc(C)cc(C)c5)c4=O)cc3F)ccnc2cc1OCCCN1CCCC1`, the IC50 in the assay on HT-29 [3] worked out at 300 nM; in “cells [4]”, 620 nM; in the assay “cells [5]” it was 1200 nM.
For the compound `COc1cc2c(Oc3ccc(NC(=O)c4c(Cl)c5ccccc5n(-c5ccc(F)cc5)c4=O)cc3F)ccnc2cc1OCCCN1CCC(C)CC1`, the 50% inhibitory concentration (IC50) came to 1920 nM in assay [1]; 990 nM in the assay on A549; 3.26 nM in assay [2]; 110 nM with HT-29 [3]; 89 nM in the assay “cells [4]”; 160 nM in the assay “cells [5]”.
Regarding `COc1cc2c(Oc3ccc(NC(=O)c4c(Cl)c5ccccc5n(-c5ccc(F)cc5)c4=O)cc3F)ccnc2cc1OCCCN1CCN(C)CC1`, the IC50 in [1] was 520 nM; in the assay on A549 it was 110 nM; in assay [2], 1.21 nM; in assay [8], 2.15 nM; in [9], 363 nM; in [10] it was 526 nM. The IC50 is 543 nM in [11]; more than 100000 nM in assay [12]; 68 nM in the assay on HT-29 [3]; 31 nM in “cells [4]”; 160 nM in “cells [5]”. The “Ratio IC50” value in assay [6] is recorded as 6.1; in the assay with HT-29 [7], 2.4; with U-87 MG it was 2.1.
As for `COc1cc2c(Oc3ccc(NC(=O)c4c(Cl)c5ccccc5n(-c5ccc(F)cc5)c4=O)cc3F)ccnc2cc1OCCCN1CCOCC1`, the concentration for half-maximal inhibition (IC50) came out at 8500 nM in assay [1]; 110 nM with A549; 5.32 nM in [2]; 140 nM in the assay on HT-29 [3]; 61 nM in the assay “cells [4]”; 210 nM in “cells [5]”.
Consider `COc1cc2c(Oc3ccc(NC(=O)c4c(Cl)c5ccccc5n(-c5ccccc5)c4=O)cc3F)ccnc2cc1OCCCN1CCN(C)CC1`, for which the IC50 in [2] came to 1.75 nM; in the assay with HT-29 [3], 91 nM; in “cells [4]” it was 61 nM; in “cells [5]” it was 120 nM.
Turning to `COc1cc2c(Oc3ccc(NC(=O)c4c(Cl)c5ccccc5n(-c5ccccc5F)c4=O)cc3F)ccnc2cc1OCCCN1CCN(C)CC1`, the IC50 in assay [1] is 1320 nM; with A549, 290 nM; in the assay on HT-29 [3] it was 170 nM; in “cells [4]”, 270 nM; in the assay “cells [5]”, 410 nM.
The matching figures for `COc1cc2c(Oc3ccc(NC(=O)c4c(Cl)c5ccccc5n(-c5ccc(C)cc5)c4=O)cc3F)ccnc2cc1OCCCN1CCCC1`: 3240 nM, 230 nM, 480 nM, 230 nM and 900 nM.
